{
  "source": "PubChem BioAssay (NCI)",
  "experiment_in_all_cases": "NCI tumour cell line growth inhibition, 48 h",
  "key": {"[1]": {"test_system": "SK-MEL-2 melanoma"}, "[2]": {"test_system": "NCI-H522 lung"}, "[3]": {"test_system": "MALME-3M melanoma"}, "[4]": {"test_system": "OVCAR-5 ovarian"}, "[5]": {"test_system": "CAKI-1 renal"}, "[6]": {"test_system": "RPMI-8226 leukemia"}, "[7]": {"test_system": "HS 578T breast"}, "[8]": {"test_system": "NCI-H226 lung"}, "[9]": {"test_system": "OVCAR-8 ovarian"}, "[10]": {"test_system": "BT-549 breast"}, "[11]": {"test_system": "U251 CNS"}, "[12]": {"test_system": "HOP-62 NSCLC"}, "[13]": {"test_system": "EKVX NSCLC"}, "[14]": {"test_system": "M14 melanoma"}, "[15]": {"test_system": "A549 NSCLC"}, "[16]": {"test_system": "TK-10 renal"}, "[17]": {"test_system": "HCT-15 colon"}, "[18]": {"test_system": "DU-145 prostate"}, "[19]": {"test_system": "HCC-2998 colon"}, "[20]": {"test_system": "MDA-MB-468 breast"}, "[21]": {"test_system": "K-562 leukemia"}, "[22]": {"test_system": "NCI-H460 lung"}, "[23]": {"test_system": "HT29 colon"}, "[24]": {"test_system": "SN12C renal"}, "[25]": {"test_system": "UACC-257 melanoma"}, "[26]": {"test_system": "KM12 colon"}, "[27]": {"test_system": "MDA-MB-231 breast"}, "[28]": {"test_system": "COLO 205 colon"}, "[29]": {"test_system": "RXF 393 renal"}},
  "note": "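Tested at 5 concentrations; 48 h exposure; 96-well plates; endpoints linearly interpolated, else capped at highest concentration. GI50 marks 50% less growth. TGI is the concentration that stops growth completely.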",
  "data": [
    {"smiles": "Cc1ccccc1[C@H]1C(C(=O)c2ccc(Cl)cc2)C2(N[C@@H]1c1ccccc1)C(=O)Nc1ccc(Br)cc12", "note": "(stereo partly drawn)", "values": [
      {"measurement": "GI50", "setting": "[1]", "result": 5.32, "unit": "µM"},
      {"measurement": "TGI", "setting": "[1]", "result": 10.7, "unit": "µM"},
      {"measurement": "GI50", "setting": "[2]", "result": 5.86, "unit": "µM"},
      {"measurement": "TGI", "setting": "[2]", "result": 11.5, "unit": "µM"},
      {"measurement": "GI50", "setting": "[3]", "result": 5.35, "unit": "µM"},
      {"measurement": "TGI", "setting": "[3]", "result": 10.3, "unit": "µM"},
      {"measurement": "GI50", "setting": "[4]", "result": 4.89, "unit": "µM"},
      {"measurement": "TGI", "setting": "[4]", "result": 9.61, "unit": "µM"},
      {"measurement": "GI50", "setting": "[5]", "result": 4.11, "unit": "µM"},
      {"measurement": "TGI", "setting": "[5]", "result": 8.63, "unit": "µM"},
      {"measurement": "GI50", "setting": "[6]", "result": 7.29, "unit": "µM"},
      {"measurement": "TGI", "setting": "[6]", "result": 23.4, "unit": "µM"},
      {"measurement": "GI50", "setting": "[7]", "result": 5.62, "unit": "µM"},
      {"measurement": "TGI", "setting": "[7]", "result": 18.5, "unit": "µM"},
      {"measurement": "GI50", "setting": "[8]", "result": 5.39, "unit": "µM"},
      {"measurement": "TGI", "setting": "[8]", "result": 10.6, "unit": "µM"},
      {"measurement": "GI50", "setting": "[9]", "result": 6.35, "unit": "µM"},
      {"measurement": "TGI", "setting": "[9]", "result": 15, "unit": "µM"},
      {"measurement": "GI50", "setting": "[10]", "result": 5.56, "unit": "µM"},
      {"measurement": "TGI", "setting": "[10]", "result": 10.6, "unit": "µM"},
      {"measurement": "GI50", "setting": "[11]", "result": 5.6, "unit": "µM"},
      {"measurement": "TGI", "setting": "[11]", "result": 12.1, "unit": "µM"},
      {"measurement": "GI50", "setting": "[12]", "result": 5.91, "unit": "µM"},
      {"measurement": "TGI", "setting": "[12]", "result": 11.6, "unit": "µM"},
      {"measurement": "GI50", "setting": "[13]", "result": 4.33, "unit": "µM"},
      {"measurement": "TGI", "setting": "[13]", "result": 9.25, "unit": "µM"},
      {"measurement": "GI50", "setting": "[14]", "result": 5.9, "unit": "µM"},
      {"measurement": "TGI", "setting": "[14]", "result": 11.1, "unit": "µM"},
      {"measurement": "GI50", "setting": "[15]", "result": 5.44, "unit": "µM"},
      {"measurement": "TGI", "setting": "[15]", "result": 11.8, "unit": "µM"},
      {"measurement": "GI50", "setting": "[16]", "result": 5.54, "unit": "µM"},
      {"measurement": "TGI", "setting": "[16]", "result": 10.9, "unit": "µM"},
      {"measurement": "GI50", "setting": "[17]", "result": 5.39, "unit": "µM"},
      {"measurement": "TGI", "setting": "[17]", "result": 10.7, "unit": "µM"},
      {"measurement": "GI50", "setting": "[18]", "result": 5.46, "unit": "µM"},
      {"measurement": "TGI", "setting": "[18]", "result": 10.6, "unit": "µM"},
      {"measurement": "GI50", "setting": "[19]", "result": 5.87, "unit": "µM"},
      {"measurement": "TGI", "setting": "[19]", "result": 10.9, "unit": "µM"},
      {"measurement": "GI50", "setting": "[20]", "result": 5.24, "unit": "µM"},
      {"measurement": "TGI", "setting": "[20]", "result": 10.1, "unit": "µM"},
      {"measurement": "GI50", "setting": "[21]", "result": 8.79, "unit": "µM"},
      {"measurement": "TGI", "setting": "[21]", "result": 36.5, "unit": "µM"},
      {"measurement": "GI50", "setting": "[22]", "result": 6.07, "unit": "µM"},
      {"measurement": "TGI", "setting": "[22]", "result": 12.7, "unit": "µM"},
      {"measurement": "GI50", "setting": "[23]", "result": 5.52, "unit": "µM"},
      {"measurement": "TGI", "setting": "[23]", "result": 13.2, "unit": "µM"},
      {"measurement": "GI50", "setting": "[24]", "result": 4.8, "unit": "µM"},
      {"measurement": "TGI", "setting": "[24]", "result": 9.56, "unit": "µM"},
      {"measurement": "GI50", "setting": "[25]", "result": 5.77, "unit": "µM"},
      {"measurement": "TGI", "setting": "[25]", "result": 11.5, "unit": "µM"},
      {"measurement": "GI50", "setting": "[26]", "result": 5.63, "unit": "µM"},
      {"measurement": "TGI", "setting": "[26]", "result": 11.6, "unit": "µM"},
      {"measurement": "GI50", "setting": "[27]", "result": 5.34, "unit": "µM"},
      {"measurement": "TGI", "setting": "[27]", "result": 10.2, "unit": "µM"},
      {"measurement": "GI50", "setting": "[28]", "result": 5.7, "unit": "µM"},
      {"measurement": "TGI", "setting": "[28]", "result": 11.1, "unit": "µM"},
      {"measurement": "GI50", "setting": "[29]", "result": 3.67, "unit": "µM"},
      {"measurement": "TGI", "setting": "[29]", "result": 8.34, "unit": "µM"}
    ]}
  ]
}
